# Key:
# [1] = target: CDK2/CycE (Homo sapiens (Human), UniProt P24941); assay: CDK2/CycE kinase assay (TR-FRET); assay type: biochemical; conditions: 10 μM ATP; read-out: CDK2 avg (IC50 [mol/l])
# Excerpt: CDK2/CycE-inhibitory activity of compounds of the present invention was quantified employing the CDK2/CycE TR-FRET assay as described in the following paragraphs.
# Recombinant fusion proteins of GST and human CDK2 and of GST and human CycE, expressed in insect cells (Sf9) and purified by Glutathion-Sepharose affinity chromatography, were purchased from ProQinase GmbH (Freiburg, Germany). As substrate for the kinase reaction biotinylated peptide biotin-Ttds-YISPLKSPYKISEG (C-terminus in amid form) was used which can be purchased e.g. form the company JERINI peptide technologies (Berlin, Germany).
# For the assay 50 nl of a 100 fold concentrated solution of the test compound in DMSO was pipetted into a black low volume 384 well microtiter plate (Greiner Bio-One, Frickenhausen, Germany), 2 μl of a solution of CDK2/CycE in aqueous assay buffer [50 mM Tris/HCl pH 8.0, 10 mM MgCl2, 1.0 mM dithiothreitol, 0.1 mM sodium ortho-vanadate, 0.01% (v/v) Nonidet-P40 (Sigma)] were added and the mixture was incubated for 15 min at 22° C. to allow pre-binding of the test compounds to the enzyme before the start of the kinase reaction. Then the kinase reaction was started by the addition of 3 μl of a solution of adenosine-tri-phosphate (ATP, 16.7 μM=>final conc. in the 5 μl assay volume is 10 μM) and substrate (1.25 μM=>final conc. in the 5 μl assay volume is 0.75 μM) in assay buffer and the resulting mixture was incubated for a reaction time of 25 min at 22° C. The concentration of CDK2/CycE was adjusted depending of the activity of the enzyme lot and was chosen appropriate to have the assay in the linear range, typical concentrations were in the range of 130 ng/ml. The reaction was stopped by the addition of 5 μl of a solution of TR-FRET detection reagents (0.2 μM streptavidine-XL665 [Cisbio Bioassays, Codolet, France] and 1 nM anti-RB(pSer807/pSer811)-antibody from BD Pharmingen [#558389] and 1.2 nM LANCE EU-W1024 labeled anti-mouse IgG antibody [Perkin-Elmer, product no. AD0077, as an alternative a Terbium-cryptate-labeled anti-mouse IgG antibody from Cisbio Bioassays can be used]) in an aqueous EDTA-solution (100 mM EDTA, 0.2% (w/v) bovine serum albumin in 100 mM HEPES/NaOH pH 7.0).
# The resulting mixture was incubated 1 h at 22° C. to allow the formation of complex between the phosphorylated biotinylated peptide and the detection reagents. Subsequently the amount of phosphorylated substrate was evaluated by measurement of the resonance energy transfer from the Eu-chelate to the streptavidine-XL. Therefore, the fluorescence emissions at 620 nm and 665 nm after excitation at 350 nm was measured in a TR-FRET reader, e.g. a Rubystar (BMG Labtechnologies, Offenburg, Germany) or a Viewlux (Perkin-Elmer). The ratio of the emissions at 665 nm and at […] was taken as the measure for the amount of phosphorylated substrate. The data were normalised (enzyme reaction without inhibitor=0% inhibition, all other assay components but no enzyme=100% inhibition).
# [2] = test system: HeLa; assay: Proliferation assay (crystal violet), HeLa; assay type: cell-based; conditions: Homo sapiens, 96 h, 4 days, read-out: Inhibition of proliferation IC50 HeLa
# Experimental: Cultivated tumor cells (cells were ordered from ATCC, except HeLa-MaTu and HeLa-MaTu-ADR, which were ordered from EPO-GmbH, Berlin) were plated at a density of 1000 to 5000 cells/well, depending on the growth rate of the respective cell line, in a 96-well multititer plate in 200 μL of their respective growth medium supplemented 10% fetal calf serum. After 24 hours, the cells of one plate (zero-point plate) were stained with crystal violet (see below), while the medium of the other plates was replaced by fresh culture medium (200 μl), to which the test substances were added in various concentrations (0 μM, as well as in the range of 0.001-10 μM; the final concentration of the solvent dimethyl sulfoxide was 0.5%). The cells were incubated for 4 days in the presence of test substances. Cell proliferation was determined by staining the cells with crystal violet: the cells were fixed by adding 20 μl/measuring point of an 11% glutaric aldehyde solution for 15 minutes at room temperature. After three washing cycles of the fixed cells with water, the plates were dried at room temperature. The cells were stained by adding 100 μl/measuring point of a 0.1% crystal violet solution (pH 3.0). After three washing cycles of the stained cells with water, the plates were dried at room temperature. The dye was dissolved by adding 100 μl/measuring point of a 10% acetic acid solution. Absorption was determined by photometry at a wavelength of 595 nm. The change of cell number, in percent, was calculated by normalization of the measured values to the absorption values of the zero-point plate (=0%) and the absorption of the untreated (0 μm) cells (=100%). The IC50 values were determined by means of a 4 parameter fit.
IC50 [1],IC50 [2],Compound
> 20 µM,6.7 µM,"COc1ccc(NC(=O)c2c(C)nsc2Nc2ccc(C#N)cn2)cn1 [Example 39, 5-[(5-Cyanopyridin-2-yl)amino]-N-(6-methoxypyridin-3-yl)-3-methyl-1,2-thiazole-4-carboxamide]"
> 20 µM,0.8 µM,"Cc1nsc(Nc2cc(C#N)ccn2)c1C(=O)Nc1ccc(Cl)c(F)c1 [Example 54, N-(4-Chloro-3-fluorophenyl)-5-[(4-cyanopyridin-2-yl)amino]-3-methyl-1,2-thiazole-4-carboxamide]"
> 20 µM,4.4 µM,"Cc1nsc(Nc2ncc(C(=O)N(C)C)s2)c1C(=O)Nc1ccc(F)c(F)c1 [Example 49, N-(3,4-Difluorophenyl)-5-{[5-(dimethylcarbamoyl)-1,3-thiazol-2-yl]amino}-3-methyl-1,2-thiazole-4-carboxamide]"
> 20 µM,5 µM,"Cc1nsc(Nc2cnc(C(=O)N(C)C)cn2)c1C(=O)Nc1ccc(F)c(F)c1 [Example 109, 5-({4-[(3,4-Difluorophenyl)carbamoyl]-3-methyl-1,2-thiazol-5-yl}amino)-N,N-dimethylpyrazine-2-carboxamide]"
> 20 µM,2.1 µM,"Cc1nsc(Nc2cc(C#N)ccn2)c1C(=O)Nc1ccc(Oc2ccccc2)nc1 [Example 111, 5-[(4-Cyanopyridin-2-yl)amino]-3-methyl-N-(6-phenoxypyridin-3-yl)-1,2-thiazole-4-carboxamide]"
> 20 µM,8.8 µM,"CCc1ccccc1NC(=O)c1c(C)nsc1Nc1cnccn1 [Example 1, N-(2-Ethylphenyl)-3-methyl-5-(pyrazin-2-ylamino)-1,2-thiazole-4-carboxamide]"
> 20 µM,1.6 µM,"Cc1nsc(Nc2ccc(C#N)cn2)c1C(=O)Nc1ccc(F)c(F)c1 [Example 28, 5-[(5-Cyanopyridin-2-yl)amino]-N-(3,4-difluorophenyl)-3-methyl-1,2-thiazole-4-carboxamide]"
> 20 µM,> 10 µM,"CCc1ccnc(Nc2snc(C)c2C(=O)Nc2ccccc2CC)n1 [Example 17, N-(2-Ethylphenyl)-5-[(4-ethylpyrimidin-2-yl)amino]-3-methyl-1,2-thiazole-4-carboxamide]"
> 20 µM,0.88 µM,"Cc1nsc(Nc2cnc3ccccc3n2)c1C(=O)Nc1ccc(Oc2ccc(F)cc2F)nc1 [Example 113, N-[6-(2,4-Difluorophenoxy)pyridin-3-yl]-3-methyl-5-(quinoxalin-2-ylamino)-1,2-thiazole-4-carboxamide]"

# The remaining lines, values behind:
Compound,IC50 [1],IC50 [2]
"Cc1nsc(Nc2cnc3ccccc3n2)c1C(=O)Nc1ccc(Oc2ccccc2)nc1 [Example 112, 3-Methyl-N-(6-phenoxypyridin-3-yl)-5-(quinoxalin-2-ylamino)-1,2-thiazole-4-carboxamide]",> 20 µM,2 µM
"CCc1ccccc1NC(=O)c1c(C)nsc1Nc1cc(-n2ccnc2)ncn1 [Example 9, N-(2-Ethylphenyl)-5-{[6-(1H-imidazol-1-yl)pyrimidin-4-yl]amino}-3-methyl-1,2-thiazole-4-carboxamide]",> 20 µM,2.4 µM
"CCc1ccccc1NC(=O)c1c(C)nsc1Nc1cc(NC)ncn1 [Example 15, N-(2-Ethylphenyl)-3-methyl-5-{[6-(methylamino)pyrimidin-4-yl]amino}-1,2-thiazole-4-carboxamide]",> 20 µM,> 10 µM
"CCOC(=O)c1sc(Nc2snc(C)c2C(=O)Nc2ccccc2CC)nc1C [Example 26, Ethyl 2-({4-[(2-ethylphenyl)carbamoyl]-3-methyl-1,2-thiazol-5-yl}amino)-4-methyl-1,3-thiazole-5-carboxylate]",> 20 µM,4.4 µM
"COC(=O)c1cnc(Nc2snc(C)c2C(=O)Nc2ccc(OC)nc2)cn1 [Example 32, Methyl 5-({4-[(6-methoxypyridin-3-yl)carbamoyl]-3-methyl-1,2-thiazol-5-yl}amino)-pyrazine-2-carboxylate]",> 20 µM,8.3 µM
"CCOC(=O)c1coc(Nc2snc(C)c2C(=O)Nc2ccc(F)c(F)c2)n1 [Example 98, Ethyl 2-({4-[(3,4-difluoro-phenyl)carbamoyl]-3-methyl-1,2-thiazol-5-yl}amino)-1,3-oxazole-4-carboxylate]",> 20 µM,10 µM
"COc1ccc(Oc2ccc(NC(=O)c3c(C)nsc3Nc3cc(C#N)ccn3)cn2)cc1 [Example 117, 5-[(4-Cyanopyridin-2-yl)amino]-N-[6-(4-methoxyphenoxy)pyridin-3-yl]-3-methyl-1,2-thiazole-4-carboxamide]",> 20 µM,3.2 µM
"CCc1ccccc1NC(=O)c1c(C)nsc1Nc1ncnc2ccccc12 [Example 10, N-(2-Ethylphenyl)-3-methyl-5-(quinazolin-4-ylamino)-1,2-thiazole-4-carboxamide]",> 20 µM,7.2 µM
"Cc1nsc(Nc2cnc3ccccc3n2)c1C(=O)Nc1ccc(Cl)c(F)c1 [Example 40, N-(4-Chloro-3-fluorophenyl)-3-methyl-5-(quinoxalin-2-ylamino)-1,2-thiazole-4-carboxamide]",> 20 µM,0.56 µM
"Cc1nsc(Nc2cnc3cc(F)ccc3n2)c1C(=O)Nc1ccc(F)c(F)c1 [Example 46, N-(3,4-Difluorophenyl)-5-[(6-fluoroquinoxalin-2-yl)amino]-3-methyl-1,2-thiazole-4-carboxamide]",> 20 µM,0.13 µM
"COc1ccc(NC(=O)c2c(C)nsc2Nc2cccc(C#N)n2)cn1 [Example 37, 5-[(6-Cyanopyridin-2-yl)amino]-N-(6-methoxypyridin-3-yl)-3-methyl-1,2-thiazole-4-carboxamide]",> 20 µM,> 10 µM
"CCc1ccccc1NC(=O)c1c(C)nsc1Nc1cnc2cc(F)ccc2n1 [Example 20, N-(2-Ethylphenyl)-5-[(6-fluoroquinoxalin-2-yl)amino]-3-methyl-1,2-thiazole-4-carboxamide]",> 20 µM,1.1 µM
"CCc1ccccc1NC(=O)c1c(C)nsc1Nc1nccc(OC)n1 [Example 16, N-(2-Ethylphenyl)-5-[(4-methoxypyrimidin-2-yl)amino]-3-methyl-1,2-thiazole-4-carboxamide]",> 20 µM,> 10 µM
"Cc1nsc(Nc2cncc(C(=O)N(C)C)n2)c1C(=O)Nc1ccc(F)c(F)c1 [Example 104, 6-({4-[(3,4-Difluorophenyl)-carbamoyl]-3-methyl-1,2-thiazol-5-yl}amino)-N,N-dimethyl-pyrazine-2-carboxamide]",> 20 µM,10 µM
"COc1ccc(NC(=O)c2c(C)nsc2Nc2nc3c(C(F)(F)F)cccc3s2)cn1 [Example 48, N-(6-Methoxypyridin-3-yl)-3-methyl-5-{[4-(trifluoromethyl)-1,3-benzothiazol-2-yl]-amino}-1,2-thiazole-4-carboxamide]",> 20 µM,0.58 µM
